The values below come from patent publication US12478661B2, “Lung cell treatments to prevent or treat disease” (THE JOHNS HOPKINS UNIVERSITY, priority 2017, dated 2025).

The test system of assay [1] is HBEKT cells. Nature of the assay: Airway surface liquid (ASL) height in HBEKTs at air liquid interface. The assay is classed as cell-based, human. To be noted: CATR 20 μM, BKA 4 μM. On the procedure: (§1) The apical surface of cells was washed once with PBS 18 hours prior to the addition of Texas Red. ASL was visualized by adding 10-kD Texas Red-dextran (17.5 μl per 12-well insert, ThermoFisher) to the apical surface of NHBE or HBEKT cultures at air liquid interface, as previously described. ASL was imaged 4 hours later by acquiring 4×4 tiled z-stacks by live-cell confocal microscopy with a heat and CO2 controlled stage (Zeiss 780 with a 40× water objective). Fluorinert ([…] was added to the top of the insert cultures immediately prior to imaging to prevent evaporation. Z-stacks were analyzed by segmentation and pixel thickness analysis. For experiments with ANT inhibitors, CATR (20 μM, Sigma) and BKA (4 μM, Sigma) in 20 μl PBS (or control PBS alone) were added to the apical surface of ALI cultures (NHBEs or HBEKTs) 18 hours prior to ASL assessment. Texas Red was added 4 hours prior to ASL testing. For apyrase treatment, 10 units of apyrase (Sigma) was added with Texas Red-dextran as described above 4 hours prior to ASL assessment.
Thickness across the sample was computed using a custom script, written in Matlab (Mathworks, Natick, MA). […] For each y in this binary image, the number of segmented pixels was counted, giving a measure of the thickness in the (x, y) location; see FIG. 13. […]

In assay [2] the test system is HBEKT cells. Kind of assay: Seahorse Mitostress cellular metabolism (OCR, ATP production, proton leak). The class given is cell-based, human. Conditions: 30 min after injection, CATR 20 μM, BKA 4 μM. The protocol: For metabolic analysis, HBEKT cells were cultured in 96-well Seahorse assay plates (Agilent) and infected with adenovirus constructs for ANT1, ANT2 and control for target overexpression at 48 hours (MOI 40, Vector BioLabs) or siRNA target suppression using siRNA and Lipofectamine as described above for ANT1, ANT2 or non-targeting control siRNA at 72 hours. After viral infection or siRNA transfection, cells were treated for 4 hours with KSFM media alone or 20% CSE. Cells were washed once in KSFM, followed by washes in buffered Seahorse Assay medium (pH 7.4) and subsequent metabolic testing according to the manufacturer's protocol (Agilent Seahorse XF96). Oligomycin (2 μM, ATPase inhibitor), FCCP (0.25 μM mitochondrial uncoupler) and a cocktail of rotenone (0.5 μM, ETC complex I inhibitor) and antimycin A (0.5 μM, ETC complex III inhibitor) were sequentially injected after three basal rates were measured. Sample measurements were normalized to total cellular mass determined by CyQuant Assay according to the manufacturer protocol (Molecular Probes, ThermoFisher). For experiments including ANT specific inhibitors, carboxyatractyloside (CATR, 20-μM, Sigma), Bongkrekic acid (BKA, 4-μM, Sigma) or vehicle control were injected into wells after basal OCR measurements were taken followed by repeat OCR measurements 30 minutes after compound injection. […]

Assay [3] relates to primary ciliated normal human bronchial epithelial cells (NHBEs). Kind of assay: Airway surface liquid (ASL) thickness in primary NHBEs at air liquid interface. The class given is cell-based. Conditions: CATR 20 μM; for effect on the ANT2 overexpression increase in ASL: BKA 4 μM apical 18 hours, apyrase 10 units 4 hours. The protocol: as §1
Thickness across the sample was computed using a custom script, written in Matlab (Mathworks, Natick, MA). Briefly, for each value x in the three-dimensional images, Im(x,y, z), the resultant (y, z) slice was segmented using adaptive thresholding (Matlab command: imbinarize), followed by operations to fill holes (imfill), morphological opening (imopen) and filtering of small regions (bwareaopen) (FIG. 13a). The threshold level was adjusted after preprocessing the complete image and the process repeated. For each y in this binary image, the number of segmented pixels was counted, giving a measure of the thickness in the (x, y) location; see FIG. 13. This gave a histogram of depths over the image (FIG. 13c). An average depth was computed for all pixels in which a non-zero depth was detected (to avoid edge effects). The process was repeated by fixing y and working with the (x, z) slice. The differences between the averages were typically less than 1-2%. Thickness in pixels was converted to μm using a slice thickness of 0.46 μm, the step size used to collect the z-stack.

As for `CO[C@H](C/C=C\C=C\CC/C=C/C[C@H](C)/C=C/C(=C\C(=O)O)CC(=O)O)/C(C)=C\C=C(/C)C(=O)O` [Bongkrekic acid], in assay [1], the “effect on the ANT2 enhancement of ASL height” value is “abolished”. For the same compound, in assay [2], the “ATP production after ANT inhibitor” value is “halted” and the “basal oxidative respiration after ANT inhibitor” value is “halted”. The “effect on the ANT2 overexpression increase in ASL” value in assay [3] is listed as “abrogated”.
As to apyrase, in assay [3], the “effect on the ANT2 overexpression increase in ASL” value is “reversed”.
As to `C=C1[C@@H]2CC[C@H]3[C@]4(C)C[C@H](O[C@@H]5O[C@H](CO)[C@@H](OS(=O)(=O)O)[C@H](OS(=O)(=O)O)[C@H]5OC(=O)CC(C)C)CC(C(=O)O)(C(=O)O)[C@H]4CC[C@]3(C2)[C@H]1O` [carboxyatractyloside], in assay [1], the “effect on the ANT2 enhancement of ASL height” value is “abolished”. Further, in assay [3], the “ASL in control virus-treated cells” value was “trend towards decreasing ASL” and the “effect on the ANT2 overexpression increase in ASL” value is “abrogated”.
